System: SYO-1 complex spheroid growth, percent test/control
Assay: Anticancer human tumor SYO-1 cell line growth inhibition [Asc];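 further: compound exposure lasted 7 days after spheroids grew 3 days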;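 on viability, T/C: 100% = DMSO vehicle control viability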
Conditions: for IC50: curve of first compound; for viability, T/C: stronger effect = lower value
Procedure, shortened: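 Complex spheroids combining tumor cells with HUVEC endothelial cells and human MSCs, at 37 degrees C, 5% CO2; agents tested alone or combined, half-log dilutions from at or near clinical Cmax, or 10 microM if Cmax unknown.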

[1] = second compound 0.01 µM, first compound 0.00316 µM
[2] = second compound 0.01 µM, first compound 0.01 µM
[3] = second compound 0.01 µM, first compound 0.0316 µM
[4] = second compound 0.01 µM, first compound 0.1 µM
[5] = second compound 0.01 µM, first compound 0.316 µM
[6] = second compound 0.01 µM, first compound 1 µM
[7] = second compound 0.0316 µM, first compound 0.00316 µM
[8] = second compound 0.0316 µM, first compound 0.01 µM
[9] = second compound 0.0316 µM, first compound 0.0316 µM
[10] = second compound 0.0316 µM, first compound 0.1 µM
[11] = second compound 0.0316 µM, first compound 0.316 µM
[12] = second compound 0.0316 µM, first compound 1 µM
[13] = second compound 0.1 µM, first compound 0.00316 µM
[14] = second compound 0.1 µM, first compound 0.01 µM
[15] = second compound 0.1 µM, first compound 0.0316 µM
[16] = second compound 0.1 µM, first compound 0.1 µM
[17] = second compound 0.1 µM, first compound 0.316 µM
[18] = second compound 0.1 µM, first compound 1 µM
[19] = second compound 0.316 µM, first compound 0.00316 µM
[20] = second compound 0.316 µM, first compound 0.01 µM
[21] = second compound 0.316 µM, first compound 0.0316 µM
[22] = second compound 0.316 µM, first compound 0.1 µM
[23] = second compound 0.316 µM, first compound 0.316 µM
[24] = second compound 0.316 µM, first compound 1 µM
[25] = second compound 1 µM, first compound 0.00316 µM
[26] = second compound 1 µM, first compound 0.01 µM
[27] = second compound 1 µM, first compound 0.0316 µM
[28] = second compound 1 µM, first compound 0.1 µM
[29] = second compound 1 µM, first compound 0.316 µM
[30] = second compound 1 µM, first compound 1 µM

| Compound | IC50 (second compound 0.01 µM) [nM] | IC50 (second compound 0.0316 µM) [nM] | IC50 (second compound 0.1 µM) [nM] | IC50 (second compound 0.316 µM) [nM] | IC50 (second compound 1 µM) [nM] | viability, T/C [1] [%] | viability, T/C [2] [%] | viability, T/C [3] [%] | viability, T/C [4] [%] | viability, T/C [5] [%] | viability, T/C [6] [%] | viability, T/C [7] [%] | viability, T/C [9] [%] | viability, T/C [10] [%] | viability, T/C [15] [%] | viability, T/C [16] [%] | viability, T/C [21] [%] | viability, T/C [22] [%] | viability, T/C [27] [%] | viability, T/C [28] [%] | other results |
| --- | --- | --- | --- | --- | --- | --- | --- | --- | --- | --- | --- | --- | --- | --- | --- | --- | --- | --- | --- | --- | --- |
| CCN1CCN(Cc2ccc(Nc3ncc(F)c(-c4cc(F)c5nc(C)n(C(C)C)c5c4)n3)nc2)CC1 + CNC(C)C(=O)NC1CN(S(=O)(=O)c2cccc(S(=O)(=O)N3CCC4CCC(C(=O)NC(c5ccccc5)c5ccccc5)N4C(=O)C(NC(=O)C(C)NC)C3)c2)CCC2CCC(C(=O)NC(c3ccccc3)c3ccccc3)N2C1=O | > 1000 | > 1000 | > 1000 | > 1000 | > 1000 | 110 | 114 | 108 | 111 | 109 | 116 | 101 | 105 | 110 | 96.7 | 106 | 108 | 100 | 103 | 110 | viability, T/C [8]: 101%; viability, T/C [11]: 112%; viability, T/C [12]: 114%; viability, T/C [13]: 102%; viability, T/C [14]: 101%; viability, T/C [17]: 105%; viability, T/C [18]: 108%; viability, T/C [19]: 97.6%; viability, T/C [20]: 103%; viability, T/C [23]: 109%; viability, T/C [24]: 115%; viability, T/C [25]: 101%; viability, T/C [26]: 101%; viability, T/C [29]: 101%; viability, T/C [30]: 101% |
| Cn1ncnc1[C@H]1c2n[nH]c(=O)c3cc(F)cc(c23)N[C@@H]1c1ccc(F)cc1 + CNC(C)C(=O)NC1CN(S(=O)(=O)c2cccc(S(=O)(=O)N3CCC4CCC(C(=O)NC(c5ccccc5)c5ccccc5)N4C(=O)C(NC(=O)C(C)NC)C3)c2)CCC2CCC(C(=O)NC(c3ccccc3)c3ccccc3)N2C1=O | > 100 | > 100 | > 100 | > 100 | > 100 | 103 | 91.8 | 76.8 | 82.9 | – | – | 103 | 75.8 | 86.3 | 75.4 | 86.3 | 66.8 | 86.4 | 78.9 | 85.7 | viability, T/C (second compound 0.01 µM, first compound 0.000316 µM): 107%; viability, T/C (second compound 0.01 µM, first compound 0.001 µM): 106%; viability, T/C (second compound 0.0316 µM, first compound 0.000316 µM): 101%; viability, T/C (second compound 0.0316 µM, first compound 0.001 µM): 102%; viability, T/C [8]: 98.3%; viability, T/C (second compound 0.1 µM, first compound 0.000316 µM): 108%; viability, T/C (second compound 0.1 µM, first compound 0.001 µM): 93.6%; viability, T/C [13]: 96.8%; viability, T/C [14]: 93.4%; viability, T/C (second compound 0.316 µM, first compound 0.000316 µM): 112%; viability, T/C (second compound 0.316 µM, first compound 0.001 µM): 103%; viability, T/C [19]: 95%; viability, T/C [20]: 92.1%; viability, T/C (second compound 1 µM, first compound 0.000316 µM): 98.2%; viability, T/C (second compound 1 µM, first compound 0.001 µM): 107%; viability, T/C [25]: 96.3%; viability, T/C [26]: 93.6% |
| O=C(c1cc(Cc2n[nH]c(=O)c3ccccc23)ccc1F)N1CCN(C(=O)C2CC2)CC1 + CNC(C)C(=O)NC1CN(S(=O)(=O)c2cccc(S(=O)(=O)N3CCC4CCC(C(=O)NC(c5ccccc5)c5ccccc5)N4C(=O)C(NC(=O)C(C)NC)C3)c2)CCC2CCC(C(=O)NC(c3ccccc3)c3ccccc3)N2C1=O | 4730 | 4470 | 4370 | 4260 | 3920 | – | – | 99.8 | 95.9 | 105 | 94.6 | – | 104 | 96.8 | 105 | 95.4 | 98.6 | 94.7 | 97.4 | 102 | viability, T/C (second compound 0.01 µM, first compound 3.16 µM): 71.9%; viability, T/C (second compound 0.01 µM, first compound 10 µM): 9.58%; viability, T/C [11]: 94.2%; viability, T/C [12]: 93.6%; viability, T/C (second compound 0.0316 µM, first compound 3.16 µM): 67.5%; viability, T/C (second compound 0.0316 µM, first compound 10 µM): 8.65%; viability, T/C [17]: 103%; viability, T/C [18]: 93.5%; viability, T/C (second compound 0.1 µM, first compound 3.16 µM): 66.3%; viability, T/C (second compound 0.1 µM, first compound 10 µM): 8.36%; viability, T/C [23]: 99.8%; viability, T/C [24]: 96.4%; viability, T/C (second compound 0.316 µM, first compound 3.16 µM): 65.8%; viability, T/C (second compound 0.316 µM, first compound 10 µM): 5.64%; viability, T/C [29]: 90.3%; viability, T/C [30]: 91.7%; viability, T/C (second compound 1 µM, first compound 3.16 µM): 59.9%; viability, T/C (second compound 1 µM, first compound 10 µM): 5.84% |
| O=C(c1ccc(F)c(F)c1Nc1ccc(I)cc1F)N1CC(O)([C@@H]2CCCCN2)C1 + CNC(C)C(=O)NC1CN(S(=O)(=O)c2cccc(S(=O)(=O)N3CCC4CCC(C(=O)NC(c5ccccc5)c5ccccc5)N4C(=O)C(NC(=O)C(C)NC)C3)c2)CCC2CCC(C(=O)NC(c3ccccc3)c3ccccc3)N2C1=O | > 1000 | > 1000 | > 1000 | > 1000 | > 1000 | 97.8 | 105 | 102 | 98.1 | 97.6 | 103 | 106 | 95.2 | 95.2 | 105 | 92.1 | 99.6 | 96 | 113 | 98.4 | viability, T/C [8]: 106%; viability, T/C [11]: 95%; viability, T/C [12]: 94.5%; viability, T/C [13]: 99.5%; viability, T/C [14]: 106%; viability, T/C [17]: 96.9%; viability, T/C [18]: 93.6%; viability, T/C [19]: 113%; viability, T/C [20]: 104%; viability, T/C [23]: 99.8%; viability, T/C [24]: 97.8%; viability, T/C [25]: 97.7%; viability, T/C [26]: 103%; viability, T/C [29]: 92.4%; viability, T/C [30]: 91.2% |

Source: PubChem BioAssay AID1963432 (Molecular Pharmacology Branch, DTP, NCI, 2024)
